Source: US12227482B2, “Compounds and compositions for the treatment of cancer” (The Regents of the University of California, priority 2016, dated 2025)

Legend:
Type in all cases: cell-based
Settings in all cases: 72 hours treatment, cell survival by CellTiter-Glo, 2% fetal bovine serum
LOX cells = assay: Cell viability (CellTiter-Glo ATP content) in LOX cells
Procedure, shortened: (§1)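 Cells plated at 5,000 per well in antibiotic-free RPMI with 2% FBS, treated next day in triplicate with increasing compound doses (final DMSO 0.5%) for 72 hours. Viability read as ATP content by CellTiter-Glo luminescence; percent survival relative to vehicle control set as 100%.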

A549 cells = assay: Cell viability (CellTiter-Glo ATP content) in A549 cells
Procedure, shortened: as §1

MelJuSo cells = assay: Cell viability (CellTiter-Glo ATP content) in MelJuSo cells
Procedure, shortened: as §1

Row | SMILES | IC50 (LOX cells; LOX, 72 h) [µM] | IC50 (A549 cells; Homo sapiens, A549, 72 h) [µM] | IC50 (MelJuSo cells; Homo sapiens, MEL-JUSO) [µM] | IC50 (LOX cells) [µM] | IC50 (A549 cells) [µM] | IC50 (MelJuSo cells) [µM]
1 | CCCCC1C(c2ccc(F)cc2)=NN(c2ccc(F)cc2F)C1(C)C(=O)NCC(=O)OC (stereo not drawn) [Compound 81, methyl 2-(4-butyl-1-(2,4-difluorophenyl)-3-(4-fluorophenyl)-5-methyl-4,5-dihydro-1H-pyrazole-5-carboxamido)acetate] | 0.5 to 1 | 0.5 to 1 | < 0.25 | – | – | –
2 | CC1(C(=O)NCC(=O)NCCO)C(c2cccs2)C(c2ccc(F)cc2)=NN1c1ccc(F)cc1F (stereo not drawn) [Compound 112, 1-(2,4-difluorophenyl)-3-(4-fluorophenyl)-N-(2-(2-hydroxyethylamino)-2-oxoethyl)-5-methyl-4-(thiophen-2-yl)-4,5-dihydro-1H-pyrazole-5-carboxamide] | > 2 | > 2 | > 2 | – | – | –
3 | CCCCC1C(c2ccc(F)cc2)=NN(c2ccccc2)C1(C)C(=O)N(CCO)Cc1ccccc1 (stereo not drawn) [Compound 78, N-benzyl-4-butyl-3-(4-fluorophenyl)-N-(2-hydroxyethyl)-5-methyl-1-phenyl-4,5-dihydro-1H-pyrazole-5-carboxamide] | > 2 | > 2 | > 2 | – | – | –
4 | CCCCC1C(c2ccc(F)cc2)=NN(c2ccccc2)C1(C)C(=O)N[C@@H](C)c1ccccc1 (stereo partly drawn) [Compound 42, 4-butyl-3-(4-fluorophenyl)-5-methyl-1-phenyl-N-((S)-1-phenylethyl)-4,5-dihydro-1H-pyrazole-5-carboxamide] | > 2 | > 2 | > 2 | – | – | –
5 | CCCCC1C(c2ccc(F)cc2)=NN(c2ccccc2)C1(C)C(=O)NCC1CCCCC1 (stereo not drawn) [Compound 51, 4-butyl-N-(cyclohexylmethyl)-3-(4-fluorophenyl)-5-methyl-1-phenyl-4,5-dihydro-1H-pyrazole-5-carboxamide] | > 2 | > 2 | > 2 | – | – | –
6 | CCCCC1C(c2ccc(F)cc2)=NN(c2ccc(C)cc2)C1(C)C(=O)NCCCC(C)(C)CO (stereo not drawn) [Compound 62, 4-butyl-3-(4-fluorophenyl)-N-(5-hydroxy-4,4-dimethylpentyl)-5-methyl-1-p-tolyl-4,5-dihydro-1H-pyrazole-5-carboxamide] | – | – | – | 0.5 to 1 | > 2 | 0.25 to 0.5
7 | CCCCC1C(c2ccc(F)cc2)=NN(c2ccc(F)cc2)C1(C)C(=O)NCCCOC (stereo not drawn) [Compound 14, 4-butyl-1,3-bis(4-fluorophenyl)-N-(3-methoxypropyl)-5-methyl-4,5-dihydro-1H-pyrazole-5-carboxamide] | 1 to 2 | > 2 | 1 to 2 | – | – | –
8 | CCCCC1C(c2ccc(F)cc2)=NN(c2ccccc2)C1(C)C(=O)NCCCN1CCOCC1 (stereo not drawn) [Compound 65, 4-butyl-3-(4-fluorophenyl)-5-methyl-N-(3-morpholinopropyl)-1-phenyl-4,5-dihydro-1H-pyrazole-5-carboxamide] | > 2 | > 2 | > 2 | – | – | –
9 | CC1(C(=O)NCC(=O)NCCS(C)(=O)=O)C(c2cccs2)C(c2ccc(F)cc2)=NN1c1ccc(F)cc1F (stereo not drawn) [Compound 109, 1-(2,4-difluorophenyl)-3-(4-fluorophenyl)-5-methyl-N-(2-(2-(methylsulfonyl)ethylamino)-2-oxoethyl)-4-(thiophen-2-yl)-4,5-dihydro-1H-pyrazole-5-carboxamide] | > 2 | > 2 | > 2 | – | – | –
10 | CC1(C(=O)NCC(O)CCO)C(c2cccs2)C(c2ccc(F)cc2)=NN1c1ccc(F)cc1F (stereo not drawn) [Compound 124, 1-(2,4-difluorophenyl)-N-(2,4-dihydroxybutyl)-3-(4-fluorophenyl)-5-methyl-4-(thiophen-2-yl)-4,5-dihydro-1H-pyrazole-5-carboxamide] | > 2 | > 2 | > 2 | – | – | –
11 | CCCCC1C(c2ccc(F)cc2)=NN(c2cccc(Cl)c2)C1(C)C(=O)NCCCC(C)(C)CO (stereo not drawn) [Compound 17, 4-butyl-1-(3-chlorophenyl)-3-(4-fluorophenyl)-N-(5-hydroxy-4,4-dimethylpentyl)-5-methyl-4,5-dihydro-1H-pyrazole-5-carboxamide] | 1 to 2 | 1 to 2 | 0.25 to 0.5 | – | – | –
12 | CCCCC1C(c2ccc(F)cc2)=NN(c2ccc(F)cc2F)C1(C)C(=O)NCCOCC (stereo not drawn) [Compound 32, 4-butyl-1-(2,4-difluorophenyl)-N-(2-ethoxyethyl)-3-(4-fluorophenyl)-5-methyl-4,5-dihydro-1H-pyrazole-5-carboxamide] | 0.5 to 1 | 0.5 to 1 | 0.25 to 0.5 | – | – | –
13 | CCCCC1C(c2ccc(F)cc2F)=NN(c2ccccc2)C1(C)C(=O)NCCOC (stereo not drawn) [Compound 57, 4-butyl-3-(2,4-difluorophenyl)-N-(2-methoxyethyl)-5-methyl-1-phenyl-4,5-dihydro-1H-pyrazole-5-carboxamide] | 0.5 to 1 | 1 to 2 | 0.5 to 1 | – | – | –
14 | COC(=O)CNC(=O)C1(C)C(c2ccc(Cl)o2)C(c2ccc(F)cc2F)=NN1c1ccc(F)cc1F (stereo not drawn) [Compound 121, methyl 2-(4-(5-chlorofuran-2-yl)-1,3-bis(2,4-difluorophenyl)-5-methyl-4,5-dihydro-1H-pyrazole-5-carboxamido)acetate] | < 0.25 | < 0.25 | < 0.25 | – | – | –
15 | CCCCC1C(c2ccc(F)cc2)=NN(c2ccc(F)cc2F)C1(C)C(=O)NCCC#N (stereo not drawn) [Compound 83, 4-butyl-N-(2-cyanoethyl)-1-(2,4-difluorophenyl)-3-(4-fluorophenyl)-5-methyl-4,5-dihydro-1H-pyrazole-5-carboxamide] | 1 to 2 | 1 to 2 | 0.5 to 1 | – | – | –
16 | CCCCC1C(c2ccc(F)cc2)=NN(c2ccccc2)C1(C)C(=O)NCCCN(C)C (stereo not drawn) [Compound 49, 4-butyl-N-(3-(dimethylamino)propyl)-3-(4-fluorophenyl)-5-methyl-1-phenyl-4,5-dihydro-1H-pyrazole-5-carboxamide] | > 2 | > 2 | > 2 | – | – | –
17 | CCCCC1C(c2ccc(F)cc2)=NN(c2ccccc2)C1(C)C(=O)NCc1ccc(O)cc1 (stereo not drawn) [Compound 36, 4-butyl-3-(4-fluorophenyl)-N-(4-hydroxybenzyl)-5-methyl-1-phenyl-4,5-dihydro-1H-pyrazole-5-carboxamide] | > 2 | > 2 | 1 to 2 | – | – | –
18 | CCCCC1C(c2ccc(F)cc2)=NN(c2ccccc2)C1(C)C(=O)NC(C)c1ccc(S(C)(=O)=O)cc1 (stereo not drawn) [Compound 69, 4-butyl-3-(4-fluorophenyl)-5-methyl-N-(1-(4-(methylsulfonyl)phenyl)ethyl)-1-phenyl-4,5-dihydro-1H-pyrazole-5-carboxamide] | > 2 | > 2 | > 2 | – | – | –
19 | COCCNC(=O)C1(C)C(c2cccs2)C(c2ccc(F)cc2)=NN1c1ccc(F)cc1F (stereo not drawn) [Compound 60, 1-(2,4-difluorophenyl)-3-(4-fluorophenyl)-N-(2-methoxyethyl)-5-methyl-4-(thiophen-2-yl)-4,5-dihydro-1H-pyrazole-5-carboxamide] | < 0.25 | 0.25 to 0.5 | < 0.25 | – | – | –
20 | CCCCC1(C)C(c2ccc(F)cc2)=NN(c2ccc(F)cc2F)C1(C)C(=O)NCCCC(C)(C)CO (stereo not drawn) [Compound 87, 4-butyl-1-(2,4-difluorophenyl)-3-(4-fluorophenyl)-N-(5-hydroxy-4,4-dimethylpentyl)-4,5-dimethyl-4,5-dihydro-1H-pyrazole-5-carboxamide] | > 2 | > 2 | > 2 | – | – | –
21 | CCCCC1C(c2ccc(F)cc2)=NN(c2cccc(F)c2)C1(C)C(=O)NCCCCC(C)(C)O (stereo not drawn) [Compound 7, 4-butyl-1-(3-fluorophenyl)-3-(4-fluorophenyl)-N-(5-hydroxy-5-methylhexyl)-5-methyl-4,5-dihydro-1H-pyrazole-5-carboxamide] | 1 to 2 | > 2 | 0.5 to 1 | – | – | –
22 | CCCCC1C(c2ccc(F)cc2)=NN(c2ccccc2)C1(C)C(=O)NCc1ccccc1OC (stereo not drawn) [Compound 44, 4-butyl-3-(4-fluorophenyl)-N-(2-methoxybenzyl)-5-methyl-1-phenyl-4,5-dihydro-1H-pyrazole-5-carboxamide] | > 2 | > 2 | > 2 | – | – | –
23 | CCCCC1C(c2ccc(F)cc2)=NN(c2ccccc2)C1(C)C(=O)NCCCCCO (stereo not drawn) [Compound 33, 4-butyl-3-(4-fluorophenyl)-N-(5-hydroxypentyl)-5-methyl-1-phenyl-4,5-dihydro-1H-pyrazole-5-carboxamide] | 1 to 2 | > 2 | 0.5 to 1 | – | – | –
24 | Cc1ccc(C2C(c3ccc(F)cc3)=NN(c3ccc(F)cc3F)C2(C)C(=O)NCCCC(C)(C)CO)s1 (stereo not drawn) [Compound 99, 1-(2,4-difluorophenyl)-3-(4-fluorophenyl)-N-(5-hydroxy-4,4-dimethylpentyl)-5-methyl-4-(5-methylthiophen-2-yl)-4,5-dihydro-1H-pyrazole-5-carboxamide] | > 2 | > 2 | 1 to 2 | – | – | –
25 | CCCCC1C(c2ccc(S(C)(=O)=O)cc2)=NN(c2ccc(F)cc2F)C1(C)C(=O)NCCOC (stereo not drawn) [Compound 114, 4-butyl-1-(2,4-difluorophenyl)-N-(2-methoxyethyl)-5-methyl-3-(4-(methylsulfonyl)phenyl)-4,5-dihydro-1H-pyrazole-5-carboxamide] | > 2 | > 2 | > 2 | – | – | –
26 | CCCCC1C(c2ccc(S(C)(=O)=O)cc2)=NN(c2ccc(F)cc2F)C1(C)C(=O)NCCCC(C)(C)CO (stereo not drawn) [Compound 113, 4-butyl-1-(2,4-difluorophenyl)-N-(5-hydroxy-4,4-dimethylpentyl)-5-methyl-3-(4-(methylsulfonyl)phenyl)-4,5-dihydro-1H-pyrazole-5-carboxamide] | > 2 | > 2 | > 2 | – | – | –
